Data from PMC7822874, “Chemoprotective antimalarials identified through quantitative high-throughput screening of Plasmodium blood and liver stage parasites” (Scientific Reports, 2021).
Several values for one entry are separate records, joined by “and”; a condition that tells them apart may be missing. Equal entries are not always repeated. Where two headings read alike, the source gives them in different places.

Experiments:
[1] = tested on: T1, Plasmodium falciparum Dd2-attB (parental line), asexual blood stages; experiment: microbe, parasite or virus in culture; design: replicate k of 3 (each line is one of three independent assays; the three lines of one compound and parasite line follow each other); conditions: n = 1; for Individual replicates / Log AC50 (M): 72 h; for AC50: Plasmodium falciparum, DD2, 72 h, read-out: Individual replicates / Log AC50 (converted)
T1 construct: Dd2-attB, the isogenic parental line
Summary of the method: (§1)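 Only some compounds were profiled here. Each was assayed three independent times against the Dd2-attB parent and its yeast-DHODH-overexpressing derivative.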

[2] = tested on: T1, Plasmodium falciparum Dd2-attB (parental line), asexual blood stages; experiment: microbe, parasite or virus in culture; design: species or system P. falciparum Dd2-attB in human erythrocytes; SYBR Green-I proliferation assay, Dd2-attB parental line, asexual blood stages; conditions: Plasmodium falciparum, DD2, Erythrocyte, 72 h, read-out: Calculated / Average Log AC50 (M), mean of replicates, 72 h (converted)
[3] = tested on: T2, Plasmodium falciparum Dd2-attB-ScDHODH (transgenic line expressing yeast DHODH), asexual blood stages; experiment: organism not typed; design: replicate k of 3 (each line is one of three independent assays; the three lines of one compound and parasite line follow each other); conditions: 72 h, n = 1; for AC50: read-out: Individual replicates / Log AC50 (converted)
T2 construct: Dd2-attB-ScDHODH, the transgenic line that expresses yeast DHODH
Summary of the method: as §1

SMILES	Individual replicates / Log AC50 (M) [1]	AC50 [1] [µM]	AC50 [2] [M]	Individual replicates / Log AC50 (M) [3]	AC50 [3] [µM]
CCOC(=O)c1ccc(O)c2ncc(N3CCC(C(=N)N)CC3)cc12 [NCGC00241051-01]	-5.1486 Log AC50 (M)	12.6	1.08e-05	-4.7486 Log AC50 (M) and -4.8986 Log AC50 (M)	
COc1ccc(-c2c(-c3cc([N+](=O)[O-])ccn3)ncn2C)cc1 [NCGC00414991-01]		14.2	1.22e-05	-4.7986 Log AC50 (M)	8.94
O=[S+]([O-])(c1nc2ccccc2[nH]1)N(CCc1ccccc1)CCN1CCCCC1 [NCGC00389114-01]	-5.5486 Log AC50 (M) (2×) and -5.0486 Log AC50 (M)		4.15e-06	-5.6986 Log AC50 (M) and -5.2486 Log AC50 (M)	
CCCOC(c1cc2nccc(C(=O)O)c2[nH]1)c1ccccc1Cl (stereo not shown) [NCGC00381656-01]	-5.0486 Log AC50 (M) and -4.7986 Log AC50 (M)	7.97	1.04e-05	-4.9486 Log AC50 (M)	15.9
CN(C)CCCNC(=O)c1cccc(-c2cc(O)c3ncccc3c2)c1 [NCGC00244527-01]	-5.0486 Log AC50 (M) and -4.8486 Log AC50 (M)	14.2	1.22e-05	-4.7986 Log AC50 (M)	8.94
CCOC(=O)c1ccnc(-c2ncn(C)c2-c2ccc(OC)cc2)c1 [NCGC00409816-01]	-5.1986 Log AC50 (M) and -4.8486 Log AC50 (M) and -5.0986 Log AC50 (M)		8.94e-06	-4.9486 Log AC50 (M) and -4.7986 Log AC50 (M)	7.97
Oc1ccc(CNc2cc(Br)ccn2)c2cccnc12 [NCGC00241030-01]	-5.2486 Log AC50 (M) and -5.0486 Log AC50 (M)	5.64	6.58e-06	-5.2486 Log AC50 (M) and -5.1986 Log AC50 (M) and -4.8986 Log AC50 (M)	
CN(C)CCCN1CCN(C(=O)c2cccc(-c3cc(O)c4ncccc4c3)c2)CC1 [NCGC00247746-01]	-4.7486 Log AC50 (M)	11.3	1.53e-05		15.9
CN(C)CC(C)(C)CNC(=O)c1cccc(-c2cc(O)c3ncccc3c2)c1 [NCGC00244532-01]	-4.7986 Log AC50 (M) and -5.1486 Log AC50 (M) and -4.8486 Log AC50 (M)		1.17e-05	-4.7486 Log AC50 (M) and -5.0986 Log AC50 (M)	
CCN(CCN(C)C)C(=O)c1cc(OCc2ccc(Cl)cc2C)n(-c2cc(C#N)ccn2)n1 [NCGC00493248-01]	-5.0486 Log AC50 (M) and -5.0986 Log AC50 (M)	15.9	1.04e-05	-4.9486 Log AC50 (M) and -4.8486 Log AC50 (M)	11.3
Oc1ccc(CNc2cc(C(F)(F)F)ccn2)c2cccnc12 [NCGC00241027-01]	-5.0986 Log AC50 (M) and -5.0486 Log AC50 (M)	14.2	1e-05	-4.8486 Log AC50 (M)	7.1
CC(NCCN1CCCCC1)c1cnn(-c2cc(CO)ccn2)c1-c1cccc(-c2ccccc2)c1 (stereo not shown) [NCGC00479100-01]		8.94	3.99e-06		8.94
O=C(O)c1c2ccc(C(=O)N3CCOCC3)cc2n2ccccc12 [NCGC00390822-01]	-5.7986 Log AC50 (M) and -5.7486 Log AC50 (M)	2.83	2e-06	-5.5986 Log AC50 (M)	2.52
Oc1ccc(CNc2ccccc2F)c2cccnc12 [NCGC00031503-02]	-4.9986 Log AC50 (M)	17.8	1.22e-05	-4.7486 Log AC50 (M) and -4.7986 Log AC50 (M)	20
COc1cccc(NCc2ccc(O)c3ncccc23)n1 [NCGC00241024-01]	-4.8986 Log AC50 (M) and -5.0486 Log AC50 (M)	12.6	1.13e-05	-4.8486 Log AC50 (M)	12.6
COC(=O)c1ccnc2cc(C(OCCN3CCCCC3)c3ccccc3Cl)sc12 (stereo not shown) [NCGC00481502-01]	-5.0486 Log AC50 (M) and -4.8486 Log AC50 (M)	15.9	1.26e-05	-4.7486 Log AC50 (M)	17.8
O=[N+]([O-])c1ccccc1NCc1ccc(O)c2ncccc12 [NCGC00184896-01]	-4.7986 Log AC50 (M) and -5.0986 Log AC50 (M) and -5.1486 Log AC50 (M)		9.65e-06	-5.0486 Log AC50 (M)	12.6
